Measured values as given in patent US6737383B1, “Herbicidal oxadiazolidines” (priority 1999, dated 2004).

Assays:
giant foxtail = assay: Test B pre/postemergence giant foxtail; type: in vivo, Setaria faberii
Outline: (§1)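 Herbicidal effect was estimated by eye on a ten-point control scale after plants spent twelve to sixteen days in a greenhouse following soil or foliar treatment. Foliar sprays targeted plants at one to four leaves; all doses were formulated in a non-phytotoxic solvent with surfactant.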

morningglory = assay: Test B pre/postemergence morningglory; type: in vivo, Ipomoea hederacea
Outline: as §1

sugar beet = assay: Test B pre/postemergence sugar beet; type: in vivo, Beta vulgaris
Outline: as §1

bamyardgrass = assay: Test B flood test barnyardgrass; type: in vivo, Echinochloa crus-galli
Outline: (§2)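 Read-out is a visual response score from 0 (no effect) to 10 (complete control), assigned by comparison with untreated controls. Treatment was applied at the 2-leaf stage, and plants stayed in the greenhouse for twelve to sixteen days before scoring.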

soybean = assay: Test B pre/postemergence soybean; type: in vivo, Glycine max
Outline: as §1

rice = assay: Test B flood test rice; type: in vivo, Oryza sativa
Outline: as §2

blackgrass = assay: Test B pre/postemergence blackgrass; type: in vivo, Alopecurus myosuroides
Outline: as §1

duck salad = assay: Test B flood test duck salad; type: in vivo, Heteranthera limosa
Outline: as §2

pigweed = assay: Test B pre/postemergence pigweed; type: in vivo, Amaranthus retroflexus
Outline: as §1

wheat = assay: Test B pre/postemergence wheat; type: in vivo, Triticum aestivum
Outline: as §1

cocklebur = assay: Test B pre/postemergence cocklebur; type: in vivo, Xanthium strumarium
Outline: as §1

rape = assay: Test B pre/postemergence rape; type: in vivo, Brassica napus
Outline: as §1

wild oat = assay: Test B pre/postemergence wild oat; type: in vivo, Avena fatua
Outline: as §1

purple nutsedge = assay: Test B pre/postemergence purple nutsedge; type: in vivo, Cyperus rotundus
Outline: as §1

smallflower flatsedge = assay: Test B flood test smallflower flatsedge; type: in vivo, Cyperus difformis
Outline: as §2

velvetleaf = assay: Test B pre/postemergence velvetleaf; type: in vivo, Abutilon theophrasti
Outline: as §1

[1] = Preemergence, Rate 62 g/ha, scale of 0 to 10 where 0 is no effect and 10 is complete control
[2] = Preemergence, Rate 250 g/ha, scale of 0 to 10 where 0 is no effect and 10 is complete control
[3] = Preemergence, Rate 500 g/ha, scale of 0 to 10 where 0 is no effect and 10 is complete control
[4] = Rate 125 g/ha, Postemergence, scale of 0 to 10 where 0 is no effect and 10 is complete control
[5] = Rate 125 g/ha, Preemergence, scale of 0 to 10 where 0 is no effect and 10 is complete control
[6] = Rate 250 g/ha, Postemergence, scale of 0 to 10 where 0 is no effect and 10 is complete control
[7] = Rate 500 g/ha, Postemergence, scale 0 to 10, 0 no effect, 10 complete control
[8] = Rate 62 g/ha, headed Pre-emergence (flood test species), scale 0 to 10 (0 no effect, 10 complete control)
[9] = Rate 125 g/ha, Pre-emergence, flood test species, scale 0 to 10 where 0 is no effect and 10 is complete control
[10] = Rate 250 g/ha, Pre-emergence, flood-test species, scale 0 to 10, 0 is no effect, 10 is complete control
[11] = Rate 500 g/ha, Pre-emergence, flood test species, scale 0 to 10 (0 no effect, 10 complete control)
[12] = Rate 62 g/ha, Postemergence, scale of 0 to 10 where 0 is no effect and 10 is complete control

Compound: Cc1ccccc1-n1c(=O)on(C(=O)N(c2ccc(Oc3ccccc3)cc2)C(C)C)c1=O [Compound 268]
- Giant foxtail plant response rating (giant foxtail; [1]): 0
- Giant foxtail plant response rating (giant foxtail; [2]): 0
- Plant response rating, Giant foxtail (giant foxtail; [3]): 0
- Giant foxtail plant response rating (giant foxtail; [4]): 0
- Giant foxtail plant response rating (giant foxtail; [5]): 0
- Plant response rating, Giant foxtail (giant foxtail; [6]): 0
- Giant foxtail plant response rating (giant foxtail; [7]): 0
- Morningglory plant response rating (morningglory; [1]): 0
- Morningglory plant response rating (morningglory; [2]): 0
- Plant response rating, Morningglory (morningglory; [3]): 0
- Morningglory plant response rating (morningglory; [4]): 2
- Morningglory plant response rating (morningglory; [5]): 0
- Plant response rating, Morningglory (morningglory; [6]): 2
- Morningglory plant response rating (morningglory; [7]): 7
- Sugarbeets plant response rating (sugar beet; [1]): 0
- Sugarbeets plant response rating (sugar beet; [2]): 0
- Plant response rating, Sugarbeets (sugar beet; [3]): 0
- Sugarbeets plant response rating (sugar beet; [4]): 0
- Sugarbeets plant response rating (sugar beet; [5]): 0
- Plant response rating, Sugarbeets (sugar beet; [6]): 0
- Barnyardgrass plant response rating (bamyardgrass; [8]): 0
- Barnyardgrass plant response rating (bamyardgrass; [9]): 0
- Barnyardgrass plant response rating (bamyardgrass; [10]): 0
- Barnyardgrass plant response rating (bamyardgrass; [11]): 0
- Soybean plant response rating (soybean; [1]): 0
- Soybean plant response rating (soybean; [2]): 0
- Plant response rating, Soybean (soybean; [3]): 0
- Soybean plant response rating (soybean; [4]): 0
- Soybean plant response rating (soybean; [5]): 0
- Plant response rating, Soybean (soybean; [6]): 0
- Rice plant response rating (rice; [8]): 0
- Rice plant response rating (rice; [9]): 0
- Rice plant response rating (rice; [10]): 0
- Rice plant response rating (rice; [11]): 0
- Blackgrass plant response rating (blackgrass; [1]): 0
- Blackgrass plant response rating (blackgrass; [2]): 0
- Plant response rating, Blackgrass (blackgrass; [3]): 0
- Blackgrass plant response rating (blackgrass; [12]): 0
- Blackgrass plant response rating (blackgrass; [4]): 0
- Blackgrass plant response rating (blackgrass; [5]): 0
- Plant response rating, Blackgrass (blackgrass; [6]): 0
- Ducksalad plant response rating (duck salad; [8]): 0
- Ducksalad plant response rating (duck salad; [9]): 0
- Ducksalad plant response rating (duck salad; [10]): 0
- Ducksalad plant response rating (duck salad; [11]): 0
- Redroot pigweed plant response rating (pigweed; [1]): 0
- Redroot pigweed plant response rating (pigweed; [2]): 0
- Plant response rating, Redroot pigweed (pigweed; [3]): 0
- Redroot pigweed plant response rating (pigweed; [4]): 0
- Redroot pigweed plant response rating (pigweed; [5]): 0
- Plant response rating, Redroot pigweed (pigweed; [6]): 0
- Wheat plant response rating (wheat; [1]): 0
- Wheat plant response rating (wheat; [2]): 0
- Plant response rating, Wheat (wheat; [3]): 0
- Wheat plant response rating (wheat; [4]): 0
- Wheat plant response rating (wheat; [5]): 0
- Plant response rating, Wheat (wheat; [6]): 0
- Cocklebur plant response rating (cocklebur; [1]): 0
- Cocklebur plant response rating (cocklebur; [2]): 0
- Plant response rating, Cocklebur (cocklebur; [3]): 0
- Cocklebur plant response rating (cocklebur; [12]): 0
- Cocklebur plant response rating (cocklebur; [4]): 0
- Cocklebur plant response rating (cocklebur; [5]): 0
- Plant response rating, Cocklebur (cocklebur; [6]): 0
- Cocklebur plant response rating (cocklebur; [7]): 0
- Rape plant response rating (rape; [1]): 0
- Rape plant response rating (rape; [2]): 0
- Plant response rating, Rape (rape; [3]): 0
- Rape plant response rating (rape; [4]): 0
- Rape plant response rating (rape; [5]): 0
- Plant response rating, Rape (rape; [6]): 0
- Wild oats plant response rating (wild oat; [1]): 0
- Wild oats plant response rating (wild oat; [2]): 0
- Plant response rating, Wild oats (wild oat; [3]): 0
- Wild oats plant response rating (wild oat; [4]): 0
- Plant response rating, Wild oats (wild oat; [6]): 0
- Nutsedge plant response rating (purple nutsedge; [1]): 0
- Nutsedge plant response rating (purple nutsedge; [2]): 0
- Nutsedge plant response rating (purple nutsedge; [4]): 0
- Nutsedge plant response rating (purple nutsedge; [5]): 0
- Plant response rating, Nutsedge (purple nutsedge; [6]): 0
- Nutsedge plant response rating (purple nutsedge; [7]): 0
- S. Flatsedge plant response rating (smallflower flatsedge; [8]): 0
- S. Flatsedge plant response rating (smallflower flatsedge; [9]): 0
- S. Flatsedge plant response rating (smallflower flatsedge; [10]): 0
- S. Flatsedge plant response rating (smallflower flatsedge; [11]): 0
- Velvetleaf plant response rating (velvetleaf; [1]): 0
- Velvetleaf plant response rating (velvetleaf; [2]): 0
- Plant response rating, Velvetleaf (velvetleaf; [3]): 0
- Velvetleaf plant response rating (velvetleaf; [4]): 0
- Velvetleaf plant response rating (velvetleaf; [5]): 0
- Plant response rating, Velvetleaf (velvetleaf; [6]): 0
- Velvetleaf plant response rating (velvetleaf; [7]): 0

Compound: CC(C)N(C(=O)n1oc(=O)n(C2CCCC2)c1=O)c1ccc(F)cc1 [Compound 271]
- Giant foxtail plant response rating (giant foxtail; [1]): 8
- Giant foxtail plant response rating (giant foxtail; [2]): 10
- Plant response rating, Giant foxtail (giant foxtail; [3]): 10
- Giant foxtail plant response rating (giant foxtail; [4]): 3
- Giant foxtail plant response rating (giant foxtail; [5]): 10
- Plant response rating, Giant foxtail (giant foxtail; [6]): 4
- Giant foxtail plant response rating (giant foxtail; [7]): 7
- Morningglory plant response rating (morningglory; [1]): 1
- Morningglory plant response rating (morningglory; [2]): 2
- Plant response rating, Morningglory (morningglory; [3]): 7
- Morningglory plant response rating (morningglory; [4]): 2
- Morningglory plant response rating (morningglory; [5]): 1
- Plant response rating, Morningglory (morningglory; [6]): 8
- Morningglory plant response rating (morningglory; [7]): 8
- Sugarbeets plant response rating (sugar beet; [1]): 5
- Sugarbeets plant response rating (sugar beet; [2]): 8
- Plant response rating, Sugarbeets (sugar beet; [3]): 8
- Sugarbeets plant response rating (sugar beet; [4]): 2
- Sugarbeets plant response rating (sugar beet; [5]): 6
- Plant response rating, Sugarbeets (sugar beet; [6]): 4
- Sugarbeets plant response rating (sugar beet; [7]): 6
- Barnyardgrass plant response rating (bamyardgrass; [8]): 4
- Barnyardgrass plant response rating (bamyardgrass; [9]): 3
- Barnyardgrass plant response rating (bamyardgrass; [10]): 9
- Barnyardgrass plant response rating (bamyardgrass; [11]): 9
- Soybean plant response rating (soybean; [1]): 0
- Soybean plant response rating (soybean; [2]): 0
- Plant response rating, Soybean (soybean; [3]): 1
- Soybean plant response rating (soybean; [4]): 5
- Soybean plant response rating (soybean; [5]): 0
- Plant response rating, Soybean (soybean; [6]): 5
- Soybean plant response rating (soybean; [7]): 6
- Rice plant response rating (rice; [8]): 0
- Rice plant response rating (rice; [9]): 0
- Rice plant response rating (rice; [10]): 0
- Rice plant response rating (rice; [11]): 0
- Blackgrass plant response rating (blackgrass; [1]): 8
- Blackgrass plant response rating (blackgrass; [2]): 10
- Plant response rating, Blackgrass (blackgrass; [3]): 10
- Blackgrass plant response rating (blackgrass; [12]): 3
- Blackgrass plant response rating (blackgrass; [4]): 4
- Blackgrass plant response rating (blackgrass; [5]): 9
- Plant response rating, Blackgrass (blackgrass; [6]): 8
- Blackgrass plant response rating (blackgrass; [7]): 8
- Ducksalad plant response rating (duck salad; [8]): 0
- Ducksalad plant response rating (duck salad; [9]): 0
- Ducksalad plant response rating (duck salad; [10]): 0
- Ducksalad plant response rating (duck salad; [11]): 0
- Redroot pigweed plant response rating (pigweed; [1]): 3
- Redroot pigweed plant response rating (pigweed; [2]): 10
- Plant response rating, Redroot pigweed (pigweed; [3]): 10
- Redroot pigweed plant response rating (pigweed; [4]): 5
- Redroot pigweed plant response rating (pigweed; [5]): 8
- Plant response rating, Redroot pigweed (pigweed; [6]): 7
- Redroot pigweed plant response rating (pigweed; [7]): 8
- Wheat plant response rating (wheat; [1]): 0
- Wheat plant response rating (wheat; [2]): 0
- Plant response rating, Wheat (wheat; [3]): 3
- Wheat plant response rating (wheat; [4]): 0
- Wheat plant response rating (wheat; [5]): 0
- Plant response rating, Wheat (wheat; [6]): 0
- Wheat plant response rating (wheat; [7]): 0
- Cocklebur plant response rating (cocklebur; [1]): 0
- Cocklebur plant response rating (cocklebur; [2]): 0
- Plant response rating, Cocklebur (cocklebur; [3]): 4
- Cocklebur plant response rating (cocklebur; [12]): 0
- Cocklebur plant response rating (cocklebur; [4]): 0
- Cocklebur plant response rating (cocklebur; [5]): 0
- Plant response rating, Cocklebur (cocklebur; [6]): 1
- Cocklebur plant response rating (cocklebur; [7]): 4
- Rape plant response rating (rape; [1]): 2
- Rape plant response rating (rape; [2]): 10
- Plant response rating, Rape (rape; [3]): 10
- Rape plant response rating (rape; [4]): 3
- Rape plant response rating (rape; [5]): 4
- Plant response rating, Rape (rape; [6]): 4
- Rape plant response rating (rape; [7]): 6
- Wild oats plant response rating (wild oat; [1]): 2
- Wild oats plant response rating (wild oat; [2]): 6
- Plant response rating, Wild oats (wild oat; [3]): 8
- Wild oats plant response rating (wild oat; [4]): 0
- Plant response rating, Wild oats (wild oat; [6]): 0
- Wild oats plant response rating (wild oat; [7]): 3
- Nutsedge plant response rating (purple nutsedge; [1]): 0
- Nutsedge plant response rating (purple nutsedge; [2]): 0
- Plant response rating, Nutsedge (purple nutsedge; [3]): 0
- Nutsedge plant response rating (purple nutsedge; [4]): 0
- Nutsedge plant response rating (purple nutsedge; [5]): 0
- Plant response rating, Nutsedge (purple nutsedge; [6]): 0
- Nutsedge plant response rating (purple nutsedge; [7]): 0
- S. Flatsedge plant response rating (smallflower flatsedge; [8]): 0
- S. Flatsedge plant response rating (smallflower flatsedge; [9]): 0
- S. Flatsedge plant response rating (smallflower flatsedge; [10]): 0
- S. Flatsedge plant response rating (smallflower flatsedge; [11]): 0
- Velvetleaf plant response rating (velvetleaf; [1]): 2
- Velvetleaf plant response rating (velvetleaf; [2]): 7
- Plant response rating, Velvetleaf (velvetleaf; [3]): 8
- Velvetleaf plant response rating (velvetleaf; [4]): 0
- Velvetleaf plant response rating (velvetleaf; [5]): 4
- Plant response rating, Velvetleaf (velvetleaf; [6]): 0
- Velvetleaf plant response rating (velvetleaf; [7]): 3
